From US20090192226A1, “Materials and Methods for Treatment of Pathological Ocular Vascular Proliferation” (priority 2007, published 2009)
Residues, ends and D or L forms follow the SMILES beside them.

Assays:
[1] = tested on: pups undergoing the OIR model; assay: OIR model in pups, oral gavage: pre-retinal neovascularization, vaso-obliteration, vascular density; type: in vivo, mouse; settings: for reduction in pre-retinal neovascularization relative to vehicle / area of vaso-obliteration: OIR pups; for reduction in pre-retinal neovascularization relative to vehicle: gavaged twice daily P12-P17, H&E cross-sections on P17; for area of vaso-obliteration: gavaged twice daily P12-P17, assessed in P17 pups, vehicle 30.4±7.9%
Text: Retinopathy of prematurity (ROP) is the major cause of blindness in children. Supplementation with arginine or glutamine results in improved clinical outcomes in premature infants. In this study the protective effect of oral administration of Arg-Gln alone and in combination with DHA was examined in pups undergoing the OIR model. METHODS: Nursing dams and pups were returned to normal room air on P12 (postnatal day 12) and gavaged twice daily with: Arg-Gln, DHA, Arg-Gln+DHA or vehicle (P12-P17). Normoxic pups were treated in an identical manner. On P17 the pups were perfused with FITC-labeled dextran. One eye was embedded in paraffin, cross-sectioned and H&E (hematoxylin and eosin) stained for analysis of pre-retinal neovascularization. The retina from the second eye was removed and underwent microscopic analysis for the vessel regrowth, which was evaluated by vessel density.

[2] = tested on: vascular endothelial growth factor (VEGF); assay: retinal cell culture model, vascular endothelial growth factor (VEGF); type: cell-based
[3] = tested on: retinal cell culture model; assay: retinal cell culture model, transepithelial resistance (TER); type: cell-based

Row | Structure (SMILES) | pre-retinal neovascularization (result in words) ([1]; OIR mouse model, conclusions) | vaso-obliteration (result in words) ([1]; OIR mouse model, conclusions) | intra-retinal vascular density, a measure of vascular regrowth ([1]; OIR pups following hyperoxia exposure, P17, compared to vehicle treated and normoxic pups) | reduction in pre-retinal neovascularization relative to vehicle [1] [%] | area of vaso-obliteration [1] [%] | vascular endothelial growth factor (VEGF) [2] | transepithelial resistance (TER) [3]
1 | N=C(N)NCCC[C@H](N)C(=O)N[C@@H](CCC(N)=O)C(=O)O [Arg-Gln dipeptide, arginyl-glutamine] (H-Arg-Gln-OH) | dramatically inhibited | reduced | restored | 35±1 | 4.8±1.0 | decreased | increased
2 | CC/C=C\C/C=C\C/C=C\C/C=C\C/C=C\C/C=C\CCC(=O)O [DHA, decosahexaenoic acid] |  |  |  | 45±2 | 3.6±1.3 |  | 
